In BigSolDB 2.1:

C[C@@H]1OC(=O)[C@H](C)OC1=O
Details	solubility (mole fraction)
in acetone, 278.95 K	0.217
in acetone, 286.95 K	0.247
in acetone, 290.65 K	0.265
in acetone, 294.65 K	0.283
in acetone, 299.35 K	0.307
in acetone, 304.95 K	0.335
in acetone, 309.15 K	0.36
in acetone, 314.35 K	0.394
in acetone, 319.05 K	0.423
in acetone, 323.35 K	0.455
in acetone, 328.25 K	0.49
in ethanol, 283.95 K	0.00281
in ethanol, 288.65 K	0.00423
in ethanol, 295.35 K	0.00878
in ethanol, 299.95 K	0.0135
in ethanol, 303.45 K	0.031
in ethanol, 310.15 K	0.044
in ethanol, 314.65 K	0.0569
in ethanol, 319.95 K	0.081
in ethanol, 325.15 K	0.115
in ethanol, 329.25 K	0.161
in ethanol, 333.25 K	0.258
in ethanol, 336.45 K	0.337
in ethyl acetate, 277.05 K	0.115
in ethyl acetate, 282.35 K	0.131
in ethyl acetate, 287.65 K	0.147
in ethyl acetate, 296.15 K	0.178
in ethyl acetate, 301.65 K	0.199
in ethyl acetate, 305.15 K	0.221
in ethyl acetate, 308.35 K	0.242
in ethyl acetate, 313.15 K	0.272
in ethyl acetate, 318.25 K	0.311
in ethyl acetate, 324.95 K	0.369
in ethyl acetate, 331.35 K	0.436
in ethyl acetate, 336.35 K	0.491
in isopropanol, 279.65 K	0.00822
in isopropanol, 290.95 K	0.0131
in isopropanol, 295.65 K	0.017
in isopropanol, 299.95 K	0.0208
in isopropanol, 304.15 K	0.0256
in isopropanol, 309.35 K	0.0338
in isopropanol, 314.15 K	0.0455
in isopropanol, 318.65 K	0.0605
in isopropanol, 323.65 K	0.0854
in isopropanol, 329.15 K	0.127
in isopropanol, 333.15 K	0.177
in methanol, 278.25 K	0.0153
in methanol, 282.15 K	0.0221
in methanol, 284.15 K	0.0231
in methanol, 290.25 K	0.0302
in methanol, 294.25 K	0.0373
in methanol, 298.85 K	0.0474
in methanol, 302.25 K	0.0614
in methanol, 308.15 K	0.0895
in methanol, 311.45 K	0.116
in methanol, 315.75 K	0.126
in methanol, 322.25 K	0.204
in methanol, 332.55 K	0.282
in methanol, 333.15 K	0.337
in toluene, 278.55 K	0.0128
in toluene, 283.65 K	0.0211
in toluene, 286.95 K	0.0231
in toluene, 291.15 K	0.029
in toluene, 298.35 K	0.0371
in toluene, 303.15 K	0.0436
in toluene, 308.15 K	0.0666
in toluene, 315.95 K	0.0854
in toluene, 321.65 K	0.108
in toluene, 324.25 K	0.135
in toluene, 326.95 K	0.157
